Assay results from PMC7279046, “Discovery of the Novel Inhibitor Against New Delhi Metallo-β-Lactamase Based on Virtual Screening and Molecular Modelling” (International Journal of Molecular Sciences, 2020).
“Also recorded” adds a separate entry of the source. Like-named read-outs stand apart in the source and are kept apart here. Blank lines part the entries; values can stand above or below the compound they belong to.

Legend:
[1] = test system: E. coli BL21 (pET28a-SP-NDM-1); assay: antibacterial activity assay (MIC, broth microdilution; FICI); type: cell-based; conditions: for MIC: Escherichia coli; for FICI: FICI ≤ 0.5 denotes synergy
NDM-1 [2] = target: T1, NDM-1 (Klebsiella pneumoniae, UniProt C7C422); assay: nitrocefin assay (hydrolysis by purified NDM-1); type: biochemical
T1 construct: made in house; host or cells: E. coli BL21 (DE3)
T1 sequence (C7C422 29-270 limits assumed): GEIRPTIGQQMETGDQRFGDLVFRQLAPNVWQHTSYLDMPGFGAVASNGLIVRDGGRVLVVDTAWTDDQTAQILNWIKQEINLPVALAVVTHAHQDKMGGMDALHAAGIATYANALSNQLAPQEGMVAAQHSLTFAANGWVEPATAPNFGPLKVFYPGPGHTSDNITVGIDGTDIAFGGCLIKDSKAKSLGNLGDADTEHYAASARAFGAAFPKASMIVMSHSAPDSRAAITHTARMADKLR
Description: The inhibitory activities of 18 compounds against NDM-1 were tested by nitrocefin assay. The purified NDM-1 was incubated with drugs and nitrocefin, then the absorbance values of OD492nm were determined as the nitrocefin hydrolysis. […]
collected for the subsequent protein purification as described by Liu et.al. […]
further determination of the inhibitory effect of ZINC05683641 on the hydrolysis activities of NDM-1. The initial identifying of NDM-1 inhibitory activities was carried out on the […]
serves as an indicator whose colour changes from yellow to red with increased hydrolysis.
(§1) NDM-1 were incubated with various concentrations of inhibitor (0, 4, 8, 16, 32, 64 μg/mL) in phosphate buffer (pH = 7.4) at room temperature for 20 minutes, and then, 25 μL of nitrocefin was added to the mixture. After 10 minutes of incubation, the samples were read at OD492nm to determine the level of nitrocefin hydrolysis. […]

W93A-NDM-1 [3] = target: T2, W93A-NDM-1 (Klebsiella pneumoniae, UniProt C7C422, W93A); assay: nitrocefin assay with mutant W93A; type: biochemical; conditions: 4-64 μg/mL
T2 sequence (C7C422 29-270 W93A): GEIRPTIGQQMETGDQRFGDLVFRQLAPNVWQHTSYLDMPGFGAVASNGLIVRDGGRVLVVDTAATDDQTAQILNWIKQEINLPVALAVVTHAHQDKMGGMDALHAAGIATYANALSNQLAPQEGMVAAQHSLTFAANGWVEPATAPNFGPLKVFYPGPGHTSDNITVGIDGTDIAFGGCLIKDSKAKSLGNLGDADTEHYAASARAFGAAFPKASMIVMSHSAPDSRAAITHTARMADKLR
Description: (§2) Subsequently, the inhibitory activity of ZINC05683641 against mutants was tested by the nitrocefin assays. […] The findings indicate that due to the mutation of residues in the binding sites, the binding affinity of ZINC05683641 with NDM-1 decreased, leading to a loss of inhibitory activity. […]
(§3) Site-Directed Mutagenesis
(§4) The recombinant plasmid pET28a-NDM-1 was constructed according to previous reports encoding WT-NDM-1. Plasmids encoding W93A-NDM-1 or H250A-NDM-1 were constructed by using a QuikChange site-directed mutagenesis kit. The template plasmid was the pET28a-NDM-1 plasmid, as noted above.
(§5) Expression and puriﬁcation of WT-PLY and mutants
(§6) Plasmids harboring the coding sequences for WT-NDM-1, W93A-NDM-1, and H250A-NDM-1 were transformed into E. coli BL21 (DE3). The E. coli strain was cultured in 1,000 mL of LB broth supplemented with 50 μg mL–1 kanamycin until the OD 600 nm of the cultures reached 0.6–0.8.
(§7) Protein expression was induced by using 0.3 mM IPTG for 12 h at 16 °C. The cells were harvested and washed once with sterile PBS. […]
as §1

H250A-NDM-1 [4] = target: T3, H250A-NDM-1 (Klebsiella pneumoniae, UniProt C7C422, H250A); assay: nitrocefin assay with mutant H250A; type: biochemical; conditions: 4-64 μg/mL
T3 sequence (C7C422 29-270 H250A): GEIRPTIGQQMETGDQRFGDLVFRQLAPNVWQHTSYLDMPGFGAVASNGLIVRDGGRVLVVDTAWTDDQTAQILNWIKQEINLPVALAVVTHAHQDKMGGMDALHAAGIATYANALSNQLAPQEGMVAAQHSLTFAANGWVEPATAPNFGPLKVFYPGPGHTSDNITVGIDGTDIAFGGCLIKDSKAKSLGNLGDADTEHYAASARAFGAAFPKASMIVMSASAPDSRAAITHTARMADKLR
Description: as §2, §3, §4, §5, §6, §7, §1

WT-NDM-1 = target: T4, WT-NDM-1 (Klebsiella pneumoniae, UniProt C7C422); assay: fluorescence-quenching assay, WT; type: binding
T4 construct: made in house; host or cells: E. coli BL21 (DE3)
T4 sequence (C7C422 29-270 limits assumed): as the sequence (C7C422 29-270 limits assumed) above
Description: (§8) Furthermore, this competitive inhibition mechanism was verified by fluorescence quenching method. In previous literature, fluorescence quenching method are extensively used in the interaction mechanism research between ligand and protein. The binding constants of NDM-1 with ZINC05683641 were measured by fluorescence quenching method in this research. […] It is believed that the 3D structure of NDM-1-ZINC05683641 complex is reliable by MD simulation, and residues of ILE-35, MET-67, VAL-73, TRP-93, CYS-208, ASN-220 and HIS-250 played crucial roles in the binding of ZINC05683641 to NDM-1. […]
(§9) Fluorescence-quenching assay
(§10) According to Dong et al., Niu et al. and Qiu et al., the binding constants (KA) of WT-NDM-1 and two mutants NDM-1 with inhibitor were measured using the fluorescence-quenching […]
as §3, §4, §5
(§11) Plasmids harboring the coding sequences for WT-NDM-1, W93A-NDM-1, and H250A-NDM-1 were transformed into E. coli BL21 (DE3). […]

W93A-NDM-1 [5] = target: T2, W93A-NDM-1; assay: fluorescence-quenching assay, W93A; type: binding
Description: as §8, §9, §10, §3, §4, §5, §11

H250A-NDM-1 [6] = target: T3, H250A-NDM-1; assay: fluorescence-quenching assay, H250A; type: binding
Description: as §8, §9, §10, §3, §4, §5, §11

NDM-1 [7] = target: T1, NDM-1; conditions: cited from earlier work
[8] = IC50, nitrocefin hydrolysis, OD492nm, mean ± SD, n = 3
[9] = IC50 (not available; inhibitory activity at 1 mM), initial test at a concentration of 1 mM

Structure (SMILES): C[C@@H](O)[C@H]1C(=O)N2C(C(=O)O)=C(S[C@@H]3CN[C@H](C(=O)N(C)C)C3)[C@H](C)[C@H]12 [Meropenem]
MIC of meropenem in combination ([1]; +64 μg/mL ZINC05683641): 8 µg/mL
MIC of meropenem in combination ([1]; +128 μg/mL ZINC05683641): 8 µg/mL
MIC [1]: 32 µg/mL
reduction of the MICs of meropenem ([1]; addition of ZINC05683641 at 64 and 128 μg/mL): fourfold
FICI ([1]; meropenem +64 μg/mL ZINC05683641): 0.375
FICI ([1]; meropenem +128 μg/mL ZINC05683641): 0.50
FICI ([1]; meropenem +128 μg/mL ZINC05683641, listed as meropenem): 0.500

IC50 (NDM-1 [2]; [8]): 207 ± 15.5 µM
Structure (SMILES): Cc1ccc(N2C(=O)c3ccc(C(=O)c4ccc5c(c4)C(=O)N(c4ccc(C)cc4C)C5=O)cc3C2=O)c(C)c1 [ZINC00639379]

IC50 (NDM-1 [2]; [8]): > 300 µM
Structure (SMILES): O=c1oc2cc(OCc3ccc(Cl)c(Cl)c3)ccc2cc1-c1nc2ccccc2s1 [ZINC01799114]

IC50 (NDM-1 [2]; [8]): 108 ± 5.64 µM
Structure (SMILES): Cc1ccc(N2C(=O)c3ccc(C(=O)c4ccc5c(c4)C(=O)N(c4ccc(C)cc4C)C5=O)cc3C2=O)c(C)c1 [ZINC02079077]

IC50 (NDM-1 [2]; [8]): > 300 µM
Structure (SMILES): Cc1ccc(-c2cc(C(=O)Oc3ccc([N+](=O)[O-])cc3)c3cc(C)ccc3n2)cc1 [ZINC02577071]

IC50 (NDM-1 [2]; [8]): > 300 µM
Structure (SMILES): Cc1ccc(S(=O)(=O)ON2C(=O)c3cccc4cccc(c34)C2=O)cc1 [ZINC02938448]

IC50 (NDM-1 [2]; [8]): > 300 µM
Structure (SMILES): O=C1c2cccc3cccc(c23)C(=O)N1OS(=O)(=O)c1ccc(Cl)cc1 [ZINC02953923]

IC50 (NDM-1 [2]; [8]): > 300 µM
Structure (SMILES): Cc1ccc(S(=O)(=O)Nc2cccc3cccc(NS(=O)(=O)c4ccc(C)cc4)c23)cc1 [ZINC03198432]

Structure (SMILES): O=C(N[C@@H](Cc1ccc2ccccc2c1)C(=O)O)OCC1c2ccccc2-c2ccccc21 [ZINC04218138]
IC50 (NDM-1 [2]; [9]): > 1000 µM

Structure (SMILES): COc1ccc2c3c(cccc13)C(=O)N(OS(=O)(=O)c1ccc(C)cc1)C2=O [ZINC05683641]
IC50 (NDM-1 [2]; [8]): 13.6 ± 0.52 µM
hydrolysis activity of nitrocefin by WT-NDM-1 (NDM-1 [2]; final concentrations of 4, 8, 16, 32 and 64 μg/mL): reduced
inhibition at 16 µM (NDM-1 [2]; read-out: inhibition rate): > 50%
inhibition of W93A hydrolysis activity (W93A-NDM-1 [3]): almost no inhibition; also recorded: did not lead to inhibitory effects
inhibition of H250A hydrolysis activity (H250A-NDM-1 [4]): almost no inhibition; also recorded: did not lead to inhibitory effects
MIC [1]: > 512 µg/mL
inhibition of cell growth ([1]; inhibitor alone, 512 μg/mL): did not inhibit cell growth
Kd (WT-NDM-1): 2.4 µM
Kd (W93A-NDM-1 [5]): 3.28 µM
binding constant KA (W93A-NDM-1 [5]; W93A, fluorescence spectroscopy quenching, mean ± SD, n = 3): 3.05 ± 0.83 1 × 10^5 L mol^−1
Kd (H250A-NDM-1 [6]): 4.65 µM
binding constant KA (H250A-NDM-1 [6]; H250A, fluorescence spectroscopy quenching, mean ± SD, n = 3): 2.15 ± 0.88 1 × 10^5 L mol^−1

IC50 (NDM-1 [2]; [8]): > 300 µM
Structure (SMILES): C[C@H]1CCc2cc(F)cc3c(=O)c(C(=O)NCc4ccccc4Cl)c(O)n1c23 [ZINC06166781]

IC50 (NDM-1 [2]; [9]): > 1000 µM
Structure (SMILES): Cc1ccc(-c2cc(C(F)(F)F)c3c(N)c(C(=O)c4ccccc4)sc3n2)cc1 [ZINC06421319]

IC50 (NDM-1 [2]; [8]): > 300 µM
Structure (SMILES): Cc1ccc(S(=O)(=O)N[C@@H](C(=O)Oc2ccc3c4c(c(=O)oc3c2)CCCC4)c2ccccc2)cc1 [ZINC11865709]

IC50 (NDM-1 [2]; [8]): > 300 µM
Structure (SMILES): O=[N+]([O-])c1cccc(S(=O)(=O)N2CN(c3ccc4ccccc4c3)c3nc4ccccc4nc32)c1 [ZINC12524283]

IC50 (NDM-1 [2]; [8]): > 300 µM
Structure (SMILES): O=C1C(=Cc2cccc(Cl)c2)CN(Cc2ccccc2)CC1=Cc1cccc(Cl)c1 [ZINC20115378]

IC50 (NDM-1 [2]; [9]): > 1000 µM
Structure (SMILES): Cc1ccccc1S(=O)(=O)ON1C(=O)c2cccc3cc(S(=O)(=O)N(C)C)cc(c23)C1=O [ZINC25558269]

IC50 (NDM-1 [2]; [8]): > 300 µM
Structure (SMILES): O=C1c2cccc3c(Br)ccc(c23)C(=O)N1OS(=O)(=O)c1ccc(Cl)cc1 [ZINC25558273]

IC50 (NDM-1 [2]; [9]): > 1000 µM
Structure (SMILES): Cc1ccc(C2=NN3[C@@H](C(=O)c4ccc(-c5ccccc5)cc4)Oc4ccc(Cl)cc4[C@H]3C2)cc1 [ZINC25558691]

Structure (SMILES): N[C@H](CN[C@H](CN[C@@H](CC(=O)O)C(=O)O)C(=O)O)C(=O)O [aspergillomarasmine A]
IC50 (NDM-1 [7]): 4 µM
